From ChEMBL document CHEMBL4651402, “Screening of ~5500 FDA-approved drugs and clinical candidates for anti-SARS-CoV-2 activity” (2021)
pIC50: −log10 of the molar value.

System: SARS-CoV-2
Assay: microbe, parasite or virus in culture
Settings: Severe acute respiratory syndrome coronavirus 2, Vero C1008, 48 h; for IC50: read-out: pIC50 (converted)

| SMILES | pIC50 | IC50 [µM] |
| --- | --- | --- |
| CCCCC(=O)O[C@]1(C(=O)CO)C(C)CC2C3CCC4=CC(=O)C=CC4(C)[C@@]3(F)C(O)CC21C (some centres undefined) | < 4.70 | > 20 |
| NC(Cc1ccc(O)cc1)C(=O)O (centres undefined) | < 4.70 | > 20 |
| CCN(CC)CCOC(=O)C1(c2ccc([N+](=O)[O-])cc2)CCCC1 | < 4.70 | > 20 |
| CO[C@H]1/C=C\O[C@@]2(C)Oc3c(C)c(O)c4c(O)c(c(/C=N/N5CCN(C6CCCC6)CC5)c(O)c4c3C2=O)NC(=O)/C(C)=C\C=C/[C@H](C)[C@H](O)[C@@H](C)[C@@H](O)[C@@H](C)[C@H](OC(C)=O)[C@@H]1C | < 4.70 | > 20 |
| COc1ccc(CC2c3cc(OC)c(OC)cc3CC[N+]2(C)CCC(=O)OCCCCCOC(=O)CC[N+]2(C)CCc3cc(OC)c(OC)cc3C2Cc2ccc(OC)c(OC)c2)cc1OC (centres undefined) | < 4.70 | > 20 |
| COc1ccc(-n2nc3c4c([nH]cc-3c2=O)CCCCC4)cc1 | < 4.70 | > 20 |
| Cc1nccc2c1[nH]c1cc(O)ccc12 | < 4.70 | > 20 |
| NC(CSCC(=O)O)C(=O)O (centres undefined) | < 4.70 | > 20 |
| CC(C)C(C)/C=C/C(C)C1CCC2C3=CC=C4CC(O)CCC4(C)C3CCC21C (centres undefined) | < 4.70 | > 20 |
| CC(=O)N[C@@H](CC(=O)N[C@H](CCC(=O)O)C(=O)O)C(=O)O | < 4.70 | > 20 |
| Cc1c(O)c(=O)n(-c2ccccc2)n1C | < 4.70 | > 20 |
| Cc1ccccn1 | < 4.70 | > 20 |
| OC(CCN1CCCCC1)(c1ccccc1)C1C[C@@H]2C=C[C@H]1C2 (some centres undefined) | < 4.70 | > 20 |
| CC(CNC(=O)c1cccnc1)NC(=O)c1cccnc1 (centres undefined) | < 4.70 | > 20 |
| CC12CCC(C(=O)N(CCCCN3CCN(c4ccccn4)CC3)C1=O)C2(C)C (centres undefined) | < 4.70 | > 20 |
| CC1(C)OC2CC(=O)OCC23C1CC(=O)C1(C)C3CCC2(C)C(c3ccoc3)OC(=O)C3OC321 (centres undefined) | < 4.70 | > 20 |
| CC(C)(CO)C(O)C(=O)NCCCC(=O)O (centres undefined) | < 4.70 | > 20 |
| CC(=O)C[C@@H](c1ccccc1)c1c(O)c2ccccc2oc1=O | < 4.70 | > 20 |
| CC1C2Cc3ccc(O)cc3C1(C)CCN2CC1CC1 (centres undefined) | < 4.70 | > 20 |
| COc1cc2ncnc(Nc3cccc(Br)c3)c2cc1OC | < 4.70 | > 20 |
| CC12CCC3C(CC=C4CC(O)CCC43C)C1CCC2=O (centres undefined) | < 4.70 | > 20 |
| O=C(O)C=Cc1ccc(O)c(O)c1 | < 4.70 | > 20 |
| COc1ccc2c3c1O[C@H]1[C@@H](O)CCC4[C@@H](C2)N(C)CC[C@@]341 (some centres undefined) | < 4.70 | > 20 |

| SMILES | pIC50 | IC50 [µM] |
| --- | --- | --- |
| CC12CCC3C(CCC4(O)CC(O)CCC34C=O)C1(O)CCC2C1=CC(=O)OC1 (centres undefined) | < 4.70 | > 20 |
| NCCCCCCNS(=O)(=O)c1cccc2c(Cl)cccc12 | < 4.70 | > 20 |
| Cc1cn(C2C=CC(CO)O2)c(=O)[nH]c1=O (centres undefined) | < 4.70 | > 20 |
| N=C(N)NCCC[C@H](NC(=O)c1ccc2ccccc2c1O)C(=O)N1CCC[C@H]1C(N)=O | < 4.70 | > 20 |
| N/C=C1\Cc2ccccc2C1=O | < 4.70 | > 20 |
| CC12CCC3c4ccc(OC(=O)c5ccccc5)cc4CCC3C1CCC2O (centres undefined) | < 4.70 | > 20 |
| O=C(CCc1ccc(O)cc1)c1c(O)cc(O)cc1OC1OC(CO)C(O)C(O)C1O (centres undefined) | < 4.70 | > 20 |
| O=C(O)c1ccc(NC2OC(CO)C(O)C(O)C2O)cc1 (centres undefined) | < 4.70 | > 20 |
| CC(C)[N@+]1(C)C2CC[C@H]1C[C@@H](OC(=O)C(CO)c1ccccc1)C2 (some centres undefined) | < 4.70 | > 20 |
| CCC12CCN(CC3CCC3)[C@@H](Cc3ccc(O)cc31)C2(C)C | < 4.70 | > 20 |
| CC/C(=C(\CC)c1ccc(OP(=O)(O)O)cc1)c1ccc(OP(=O)(O)O)cc1 | < 4.70 | > 20 |
| C=C[C@@](C)(O)CC[C@H]1C(=C)CCC2[C@@](C)(CO)CCC[C@@]21C (some centres undefined) | < 4.70 | > 20 |
| O=C(O)c1cc(NC(=O)[C@@H](Cc2ccccc2F)NC(=O)c2cc3[nH]cnc3cc2C(=O)NCC2CCCCCC2)cc(C(=O)O)c1 | < 4.70 | > 20 |
| CC1(C)OC2CC3C4CCC5=CC(=O)C=CC5(C)C4C(O)CC3(C)[C@]2(C(=O)CO)O1 (some centres undefined) | < 4.70 | > 20 |
| C/C=C/CC(C)C(O)C1C(=O)NC(CC)C(=O)N(C)CC(=O)N(C)C(C(C)CC)C(=O)NC(C(C)C)C(=O)N(C)C(CC(C)C)C(=O)NC(C)C(=O)NC(C)C(=O)N(C)C(CC(C)C)C(=O)N(C)C(CC(C)C)C(=O)N(C)C(C(C)C)C(=O)N1C (centres undefined) | < 4.70 | > 20 |
| Cc1ccc(S(=O)(=O)NC(=O)NC2C3CCC(C)(C2O)C3(C)C)cc1 (centres undefined) | < 4.70 | > 20 |
| CCOC(=O)c1ncc2[nH]c3cccc(OCc4ccccc4)c3c2c1COC | < 4.70 | > 20 |
| CC(=O)O[C@]1(C(C)=O)CCC2C3CCC4=CC(=O)CCC4C3C(C)CC21C (some centres undefined) | < 4.70 | > 20 |
| O=[N+]([O-])/C(Br)=C\c1ccc(Br)o1 | < 4.70 | > 20 |
| C#C[C@@]1(O)CCC2C3CCc4cc(OC)ccc4C3CCC21C (some centres undefined) | < 4.70 | > 20 |
| CC1CC2(C)C3CCC4(C)C(O)CCC4C3CC[C@H]2CC1=O (some centres undefined) | < 4.70 | > 20 |
| CC1CC2=CC(=O)CCC2C2CCC3(C)C(CCC3(C)O)C12 (centres undefined) | < 4.70 | > 20 |
| CN(C)CCOc1ccc(/C(=C(\CCCl)c2ccccc2)c2ccccc2)cc1 | < 4.70 | > 20 |

| SMILES | pIC50 | IC50 [µM] |
| --- | --- | --- |
| CCN(CC)CC(C)(C)COC(=O)c1ccc(N)cc1 | < 4.70 | > 20 |
| CC12C=CC(=O)C=C1CCC1C2C(O)CC2(C)C1CCC2(O)C(=O)COC(=O)CCCc1ccc(N(CCCl)CCCl)cc1 (centres undefined) | < 4.70 | > 20 |
| [2H]C([2H])([2H])OCCCN1CCC(NC(=O)c2cc(Cl)c(N)c3c2OCC3)CC1 | < 4.70 | > 20 |
| CC12CCC3C(CC[C@H]4Cc5n[nH]cc5C[C@]34C)C1CC[C@]2(C)O (some centres undefined) | < 4.70 | > 20 |
| CN1CC[C@]23c4c5ccc(O)c4O[C@H]2C(=O)C=C[C@@]3(O)C1C5 | < 4.70 | > 20 |
| CC(C)CCCC(C)C1CCC2C3CC[C@H]4CC(O)CCC4(C)C3CCC12C (some centres undefined) | < 4.70 | > 20 |
| COc1ccc2c3c1OC1C(O)CCC4C(C2)N(C)CCC341 (centres undefined) | < 4.70 | > 20 |
| Cc1ccc([C@H]2O[C@H](CO)[C@@H](O)[C@H](O)[C@H]2O)cc1Cc1ccc(-c2ccc(F)cc2)s1 | < 4.70 | > 20 |
| CC(=O)N[C@H]1C[C@H]2CC[C@@H](C1)N2Cc1ccc(Oc2nc3ncccc3s2)cc1 | < 4.70 | > 20 |
| CCC1(C2OC(C3OC(O)(CO)C(C)CC3C)CC2C)CCC(C2(C)CCC3(CC(O)C(C)C(C(C)C(OC)C(C)C(=O)O)O3)O2)O1 (centres undefined) | < 5.00 | > 10 |
| N#Cc1cccc([C@H]2C=C(C(F)(F)F)NC3=C2C(=O)CCC3)c1 | < 4.70 | > 20 |
| O/N=C1/CCCC/C1=N\O | < 4.70 | > 20 |
| CC1(C)CCC2(C)CCC3(C)C(=CCC4C5(C)CCC(O)C(C)(C)[C@@H]5CCC43C)C2C1 (some centres undefined) | < 4.70 | > 20 |
| COc1ccccc1N1CCN(CCn2c(=O)[nH]c3ccccc3c2=O)CC1 | < 4.70 | > 20 |
| Cc1cccc(N2CCN(CCCOc3ccc4ccc(O)nc4c3)CC2)c1C | < 4.70 | > 20 |
| Nc1nc(N)c2nc(-c3ccccc3)c(N)nc2n1 | < 4.70 | > 20 |
| CC(O)(C(=O)Nc1ccc(C(=O)c2ccccc2)cc1)C(F)(F)F (centres undefined) | < 4.70 | > 20 |
| CC12CCC3C(CCC4CC(=O)CCC43C)C1CCC2=O (centres undefined) | < 4.70 | > 20 |
| CCOCN1C2=C(C(=O)Nc3ccccc3F)C(=O)CCN2c2ccc(F)cc21 | < 4.70 | > 20 |
| N[C@@H](Cc1ccc(N(CCCl)CCCl)cc1)C(=O)O | < 4.70 | > 20 |
| CCN1C(=S)N(c2ccc(N3CCN(c4ccc(O)cc4)CC3)cc2)C(=O)C1(C)C | < 4.70 | > 20 |
